Consider 5 substances from US20250353873A1, “COMPOUNDS AND METHODS FOR MODULATING APOE EXPRESSION” (Ionis Pharmaceuticals, Inc., priority 2024, published 2025).

Strand notation (5' to 3'): a small letter for the sugar, then the base; units joined by * are phosphorothioate-linked, units joined directly phosphodiester-linked; [ ] holds rarer units or linkages, { } end groups; capitals alone tell only the bases. e = 2'-O-(2-methoxyethyl) (MOE); k = constrained ethyl (cEt); [5mC] = 5-methylcytosine; d = 2'-deoxy (DNA)

For series [1], the system named is human APOE RNA. The experiment in a line: Dose-dependent inhibition of human APOE RNA in HepG2 cells, electroporation, 50,000 cells per well, RT-PCR normalized to GAPDH (Example 4, Tables 8-10). Type of series: cell-based. The settings on record: HepG2, electroporation, 16-hour treatment. The method in brief:
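Readout is percent APOE RNA versus untreated controls, measured by RT-PCR (primer probe set RTS3073) and normalized to human GAPDH. Modified oligonucleotides were delivered by electroporation at varying doses into HepG2 cells plated at 50,000 per well.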

Series [2] deals with human APOE RNA. The experiment in a line: Activity in APOE C57BL/6NTac-Apoeem7250 knock-in mice, single ICV bolus, 20 weeks (Example 13). In kind it is in vivo. The note with it: single ICV bolus 300 μg, 20 weeks post treatment, normalized to mouse Ppia. How it is done: Modified oligonucleotides described above were tested in the APOE C57BL/6NTac-Apoeem7250 knock-in mouse model described above.
APOE C57BL/6NTac-Apoeem7250 knock-in mice were divided into groups of 4 mice each. Each mouse received a single ICV bolus of 300 μg of modified oligonucleotide. A group of 2-4 mice received a single ICV bolus with PBS as a negative control.
Twenty weeks post treatment, mice were sacrificed and RNA was extracted from cortical brain tissue and spinal cord for quantitative real-time RT-PCR analysis of RNA expression of APOE using human primer probe set RTS3073 (described herein above). APOE RNA levels were normalized to mouse Ppia. Mouse Ppia was amplified using primer probe set m_cyclo24 (described herein above). Results are presented as percent human APOE RNA relative to the amount of human APOE RNA in PBS treated animals, (% control). Each experiment is identified in separate tables below.

By IC50 is commonly meant the concentration at which inhibition is half-maximal. Higher therefore signals lower potency. Turning to “1757561: mixed MOE/cEt gapmer TTGGTGAATCTTTATTAA, sugar eeekkddddddddkeeee, linkages soossssssssssooss (eT*eTeGkG*kT*dG*dA*dA*dT*d[5mC]*dT*dT*dT*kAeTeT*eA*eA) [compound 1757561]”, the “APOE RNA (% UTC)” value is on record as 96 % UTC in series [1] (5 nM); 191 % UTC in series [1] (13 nM); 240 % UTC in series [1] (33 nM); 104 % UTC in series [1] (82 nM); 130 % UTC in series [1] (205 nM); 71 % UTC in series [1] (512 nM). For the same substance, the “APOE RNA (% UTC)” value is recorded as 45 % UTC in series [1] (1,280 nM), 38 % UTC in series [1] (3,200 nM), 35 % UTC in series [1] (8,000 nM) and 12 % UTC in series [1] (20,000 nM). This substance also returned an IC50 in series [1] of 2090 nM. Further, the “APOE RNA (% control) Cortex” value in series [2] is listed as 92 % control. The “APOE RNA (% control) Spinal Cord” value in series [2] is recorded as 64 % control.

For the substance “1757556: mixed MOE/cEt gapmer TTGGTGAATCTTTATTAA, sugar eeeeeddddddddekkee, linkages soossssssssssooss (eT*eTeGeG*eT*dG*dA*dA*dT*d[5mC]*dT*dT*dT*eAkTkT*eA*eA) [compound 1757556]”, the “APOE RNA (% UTC)” value was 92 % UTC in series [1] (5 nM); 93 % UTC in series [1] (13 nM); 98 % UTC in series [1] (33 nM); 103 % UTC in series [1] (82 nM); 101 % UTC in series [1] (205 nM); 65 % UTC in series [1] (512 nM). Further, the “APOE RNA (% UTC)” value came to 71 % UTC in series [1] (1,280 nM), 60 % UTC in series [1] (3,200 nM), 35 % UTC in series [1] (8,000 nM) and 13 % UTC in series [1] (20,000 nM). In addition, in series [1], the half-inhibitory concentration (IC50) was 3530 nM. Moreover, in series [2], the “APOE RNA (% control) Cortex” value worked out at 99 % control. Besides, the “APOE RNA (% control) Spinal Cord” value in series [2] is 82 % control.

Regarding “1757586 (eT*eTeGeGkT*dG*dA*dA*dT*d[5mC]*dT*dT*dT*dA*dT*kTkAeA*eA*e[5mC]; antisense) [Compound 1757586]”, the “APOE RNA (% UTC)” value is reported as 202 % UTC in series [1] (5 nM); 246 % UTC in series [1] (13 nM); 52 % UTC in series [1] (33 nM); 157 % UTC in series [1] (82 nM); 129 % UTC in series [1] (205 nM); 34 % UTC in series [1] (512 nM). For the same substance, the “APOE RNA (% UTC)” value in series [1] (1,280 nM) stood at 27 % UTC; in series [1] (3,200 nM) it was 20 % UTC; in series [1] (8,000 nM) it was 19 % UTC. The IC50 in series [1] is 500 nM. In addition, the “APOE RNA (% control) Cortex” value in series [2] came to 88 % control. The “APOE RNA (% control) Spinal Cord” value in series [2] is 83 % control.

For the substance “1757567 (eA*e[5mC]eTeTeG*dG*dT*dG*dA*dA*dT*d[5mC]*dT*dT*dT*kAeTeT*eA*eA; antisense) [Compound 1757567]”, the “APOE RNA (% UTC)” value is 103 % UTC in series [1] (5 nM); 108 % UTC in series [1] (13 nM); 97 % UTC in series [1] (33 nM); 91 % UTC in series [1] (82 nM); 95 % UTC in series [1] (205 nM); 64 % UTC in series [1] (512 nM). Besides, the “APOE RNA (% UTC)” value is listed as 59 % UTC in series [1] (1,280 nM), 37 % UTC in series [1] (3,200 nM), 19 % UTC in series [1] (8,000 nM) and 23 % UTC in series [1] (20,000 nM). In series [1], this substance returned a half-maximal inhibitory concentration (IC50) of 1820 nM. Moreover, the “APOE RNA (% control) Cortex” value in series [2] is listed as 80 % control. In series [2], the “APOE RNA (% control) Spinal Cord” value was 65 % control.

In the case of “1757562: mixed MOE/cEt gapmer TTGGTGAATCTTTATTAA, sugar eeeekddddddddkkeee, linkages soossssssssssooss (eT*eTeGeG*kT*dG*dA*dA*dT*d[5mC]*dT*dT*dT*kAkTeT*eA*eA) [compound 1757562]”, the “APOE RNA (% UTC)” value was 160 % UTC in series [1] (5 nM); 86 % UTC in series [1] (13 nM); 56 % UTC in series [1] (33 nM); 87 % UTC in series [1] (82 nM); 52 % UTC in series [1] (205 nM); 45 % UTC in series [1] (512 nM). In addition, the “APOE RNA (% UTC)” value is on record as 40 % UTC in series [1] (1,280 nM), 29 % UTC in series [1] (3,200 nM), 28 % UTC in series [1] (8,000 nM) and 16 % UTC in series [1] (20,000 nM). Further, in series [1], the concentration for half-maximal inhibition (IC50) is 570 nM. Further, the “APOE RNA (% control) Cortex” value in series [2] was 96 % control. Moreover, the “APOE RNA (% control) Spinal Cord” value in series [2] is recorded as 88 % control.
